The values that follow come from patent US11261196B2, “Salt serving as AKT inhibitor and crystal thereof” (HARBIN ZHENBAO PHARMACEUTICAL CO., LTD., priority 2017, dated 2022).

Series [1] can be described thus: Hygroscopicity test of the crystal form. The class given is physicochemical. Particulars: 25° C., 24 hours. Here is the method:
Three dry glass weighing bottles (with an outer diameter of 50 mm and a height of 30 mm) with a stopper was placed in a desiccator with saturated ammonium chloride solution at the lower part, the glass weighing bottles were left open, the desiccator was covered with lid, and then the desiccator was placed in a 25° C. incubator and left overnight.
The weighing bottle was weighed precisely after placed overnight, the weight was respectively m1 1, m1 2, m1 3
An appropriate amount of the crystal form of the compound of formula (I) was laid flat in the weighing bottles which was already weighed (with the sample thickness of about 1 mm), and was weighed precisely, the weight was respectively m2 1, m2 2, m2 3.
The weighing bottle was left open and was placed together with the stopper in a desiccator with saturated ammonium chloride solution at the lower part, the weighing bottle was left open, the desiccator was covered with lid, and then the desiccator was placed in a 25° C. incubator for 24 hours.
The weighing bottle was covered with its stopper after placed for 24 hours, and then it was weighed precisely, the weight was respectively m3 1, m3 2, m3 3.
The hygroscopic weight gain was calculated, the calculation formula is as follows: Weight gain percentage=100%×(m3−m2)/(m2−m1)

The target in series [2] is T1, AKT1 (Homo sapiens, UniProt P31749).
T1 construct: purchased life technology
T1 sequence (P31749 whole entry): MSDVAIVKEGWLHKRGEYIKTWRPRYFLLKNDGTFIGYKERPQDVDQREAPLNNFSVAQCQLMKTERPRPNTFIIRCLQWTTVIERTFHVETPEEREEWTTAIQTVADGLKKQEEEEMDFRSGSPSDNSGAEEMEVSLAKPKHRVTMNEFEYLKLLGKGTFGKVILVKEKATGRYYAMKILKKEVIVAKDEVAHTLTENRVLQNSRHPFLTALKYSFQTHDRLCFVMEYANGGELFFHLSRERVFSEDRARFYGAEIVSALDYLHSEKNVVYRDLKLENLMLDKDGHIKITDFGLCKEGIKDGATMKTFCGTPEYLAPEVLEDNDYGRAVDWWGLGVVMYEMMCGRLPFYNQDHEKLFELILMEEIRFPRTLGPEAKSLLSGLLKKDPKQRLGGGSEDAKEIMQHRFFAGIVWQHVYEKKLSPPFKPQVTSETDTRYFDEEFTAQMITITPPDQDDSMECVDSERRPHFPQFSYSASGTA
As to the kind of experiment: AKT enzyme activity test (LANCE TR-FRET), AKT1. The class given is biochemical. An excerpt:
AKT, also known as protein kinase B (PKB), is a serine/threonine specific protein kinase, mainly including AKT1, AKT2 and AKT3. The AKT signaling pathway plays an important role in various cellular processes such as glucose metabolism, apoptosis, cell proliferation transcription and cell migration. This study intends to analyze the inhibitory effect of the crystal form of the compound of formula (I) on the kinase activity of AKT family members.
In this experiment, the homogeneous time-resolved fluorescence […] energy transfer (LANCE TR-FRET®) method was used. The enzymes, biotinylated polypeptide substrates and the compound to be tested were mixed in the detection plate, and ATP was added to initiate the reaction and the mixture was incubated. After the reaction, EDTA was added to terminate the reaction, and Eu-labeled antibody was added at the same time to carry out the reaction and the reaction was detected. The detection plate was analyzed using Envision from PE Company, and the analysis mode was TR-FRET, the data were expressed by fluorescence signals at 665 nm and 615 nm, respectively.
Compound preparation: the test compound and the reference compound were diluted with 100% DMSO, the initial concentrations of the compounds were 10 μM, and the compounds were 3-fold gradient diluted into 10 concentrations. […]
(Time-resolved FRET reads energy transfer from a long-lived donor to a nearby acceptor.)

pIC50: −log10 of the molar value. Several values for one entry are separate records, joined by “and”; a condition that tells them apart may be missing. Equal values may be shown once.

Turning to `Cc1cnn2c1-c1cc(C(=O)N[C@H](CN)Cc3cccc(F)c3)sc1CCC2.O=C(O)/C=C\C(=O)O`, the Hygroscopicity scale entry in series [1] is “no or almost no hygroscopicity”. In addition, in series [1] (average of 3 samples, saturated ammonium chloride), the “Weight gain percentage, Average” value came out at 0.07%. Moreover, the Weight gain percentage in series [1] (single samples 1-3, saturated ammonium chloride) is 0.05% and 0.12% and 0.04%. Further, the “inhibition effect against the activity of AKT1 kinase” value in series [2] is listed as “strong inhibition effect”. Besides, in series [2] (Akt1 1.25 nM, ATP 36 μM, read-out: IC50 of inhibition on kinase activity, AKT1), the pIC50 – broadly, the IC50 on a negative log10 scale, so that one unit is a factor of ten – was 8.89.
